One data set deals with IFNγ. The data set is described as follows: Ex-vivo model of sciatic nerve injury, IFNγ immunostaining. On the set-up: species or system mouse. The following applies: injured sciatic nerve segments in DMEM, anisomycin 200 μg/ml, 3-hour incubation. How it is done: For the ex-vivo model of sciatic nerve injury, the nerves were crushed and then cut into about 3 mm to about 5 mm segments. The injured nerve segments were incubated in DMEM supplemented with about 10% FBS and about 1% penicillin/streptomycin. Translation was inhibited by 200 μg/ml anisomycin. After about a 3-hour incubation, nerve segments were fixed by 4% PFA for about 2 hours and then proceeded to the frozen section.
Mice were first perfused by PBS and then 4% PFA for 5 minutes for fixation. Respective tissues were dissected and then post-fixed in 4% PFA for two hours. Fixed tissues were incubated in 30% sucrose overnight and then embedded in an optimum cutting temperature (OCT) compound. Frozen sections were then permeabilized with 0.1% Triton X-100, blocked by 4% normal goat serum for 30 min, and incubated by respective primary antibodies overnight. After PBS washing three times, sections were incubated by secondary antibodies for two hours and washed three times again. Images were taken by Leica SP8 confocal microscope.

The next data set concerns DRG neurons. The data set can be described thus: Adult DRG neuron primary culture, length of the longest axon (compound test). Format: cell-based, mouse. The following applies: cGAMP 10 μM; for axon elongation / axon growth in DRG culture: WT DRG neurons, DMXAA 10 μM, C-176 1 μM, H-151 1 μM; for effect on the growth effect induced by cGAMP: DRG culture, DCPIB 100 nM, CBX 10 μM. How it is done: (§1) In some embodiments, in-vitro screening models of axon regeneration are based on DRG electroporation and replating culture. Adult DRGs were cultured and replated according to the protocol described previously (Weng et al., 2018). In certain embodiments, adult mice were euthanized, and L4-L6 DRGs were dissected from both sides. DRGs were dissociated in 0.5% collagenase for 1.5 hours. Then the medium containing collagenase was replaced by Neurobasal A, and DRGs were gently pipetted 20 times for dissociation. For electroporation, dissociated DRG neurons were transfected by Mouse Neuron Nucleofector Kit in Lonza Nucleofector system using program G103. 6 DRGs and 5 μg plasmid were used for each reaction. Neurobasal-A with 10% B27 supplement was used as the culture medium for DRG neurons.
For quantification of neurite lengths in DRG culture. Cells were fixed and stained with TurboGFP (phosphatase shRNA library screening) or Tuj 1. The lengths of the longest axons in each DRG neuron were quantified by the NeuronJ plugin in ImageJ. For phosphatase screening, 5-10 neurons were quantified for each shRNA. For the compound test, 10-20 cells from each mouse and 3 mice were quantified in each group.

Data set [1] concerns retinal ganglion cells (RGCs). The data set can be described thus: Optic nerve crush, number of regenerating axons (CTB labeling). Format: in vivo, mouse.
The test system of the next data set is embryonic DRG neurons. The data set can be described thus: Embryonic DRG culture in compartmented chamber, in-vitro axotomy. Type of data set: cell-based, mouse. As to conditions: ADU-S100 10 μM added to the axonal or the soma compartment. As for the experimental part: To culture embryonic DRG in the compartmented chamber, embryonic DRGs were dissected from E13.5 pregnant C57BL/6 mouse embryos in Leibovitz's L-15 medium on ice. Tissues were dissociated in TrypLE for 15 minutes at 37° C. Dissociated neurons were plated in the microfluidic chamber on cleaned glass coverslips pre-coated with poly-D-lysine and laminin in the density of 100000 cells per chamber with 5 μL culture medium supplemented with GlutaMAX (2 mM), B27 (20 ml/l), penicillin-Streptomycin, NGF ([…]) and 5-fluoro-2′-deoxyuridine (10 μM) into the somal compartment. After one hour, 200 μL medium was added into both the somal and axonal compartment. To perform in-vitro axotomy, axons in the axonal chamber were removed by a glass pipette connected to an aspirator. Then, a 150 μL medium was quickly added into the empty compartment. After 2 days in the […], cells were fixed by 4% PFA and then stained by Tuj 1 antibody. The lengths and/or number of longest axons in each chamber were quantified by ImageJ.

Data set [2] concerns retinal ganglion cells (RGCs). As to conditions: 2 WPI.
The test system of a further data set is p-STAT3. The data set is described as follows: p-STAT3 in RGCs after optic nerve injury (immunostaining). Format: in vivo, mouse. As to conditions: Ptpn2 KO group with IFNγ, 1 dpc.
The next data set has as its system cGAS. The data set can be described thus: cGAS expression in retina/RGCs after optic nerve injury (western blot, immunostaining). Type of data set: in vivo, mouse.
A further data set deals with p-STAT1. The data set can be described thus: p-STAT1 in RGCs/retina after optic nerve injury (immunostaining, western blot). Type of data set: in vivo, mouse. As to conditions: for p-STAT1 accumulation in the nuclei of RGCs: WT, IFNγ administration.
Another data set concerns adult DRG neurons. The data set is described as follows: DRG replating assay, phosphatase inhibitor screening. Format: cell-based, mouse. The following applies: replated adult DRG neurons, inhibitors 100 nM. As for the experimental part: as §1
The culture was replated three days after electroporation. The DRG neurons in the primary culture were gently flushed by 20-30 pipetting to be resuspended in the culture medium. […] The lengths of the longest axons in each DRG neuron were quantified by the NeuronJ plugin in ImageJ. […]
For quantification of neurite lengths in DRG culture. […] The lengths of the longest axons in each DRG neuron were quantified by the NeuronJ plugin in ImageJ. For phosphatase screening, 5-10 neurons were quantified for each shRNA. For the compound test, 10-20 cells from each mouse and 3 mice were quantified in each group.

Where [3] appears, read: Ptpn2 cKO plus IFNγ after optic nerve injury.

Regarding `COc1ccc(C[C@H]2NC[C@H](O)[C@H]2OC(C)=O)cc1` [anisomycin], the “reduction of the IFNγ signal” value in the data set on IFNγ is given as “over 50%”.
In the case of `Nc1nc2c(ncn2[C@@H]2O[C@@H]3COP(=O)(O)O[C@H]4[C@@H](O)[C@H](n5cnc6c(N)ncnc65)O[C@@H]4COP(=O)(O)O[C@@H]2[C@@H]3O)c(=O)[nH]1` [2′,3′-cGAMP, reference compound], the “growth effect of cGAMP on DRG culture” value in the data set on DRG neurons (Sting deletion (Sting KO mice)) is on record as “completely abolished”. Moreover, in the data set with DRG neurons, the “axon elongation / axon growth in DRG culture” value was “enhanced the axon elongation”. Besides, in data set [1] (mouse, in vivo), the “axon regeneration after optic nerve crush” value is on record as “stimulated significant axon regeneration”, the cGAMP-induced regeneration result is given as “suppressed” and the cGAMP-stimulated axon regeneration entry is given as “almost completely blocked”.
In the case of `CCCCC1(C2CCCC2)Cc2cc(OCCCC(=O)O)c(Cl)c(Cl)c2C1=O` (stereo not shown) [DCPIB], the “effect on the growth effect induced by cGAMP” value in the data set on DRG neurons is given as “inhibit the growth effect induced by cGAMP”.
On to `Nc1ncnc2c1ncn2[C@@H]1O[C@@H]2COP(=O)([S-])O[C@@H]3[C@H](O)[C@@H](COP([O-])(=S)O[C@H]2[C@H]1O)O[C@H]3n1cnc2c(N)ncnc21.[Na+].[Na+]` (stereo partly shown) [ADU-S100, reference compound], for which the “axon elongation after in-vitro axotomy” value with embryonic DRG neurons is “enhanced axon elongation”. Also, the “axon regeneration after optic nerve crush” value in data set [1] (mouse, in vivo) is “regenerative effect in a dose-dependent manner”.
Turning to `CC1(C)[C@@H](OC(=O)CCC(=O)O)CC[C@]2(C)[C@H]3C(=O)C=C4[C@@H]5C[C@@](C)(C(=O)O)CC[C@]5(C)CC[C@@]4(C)[C@]3(C)CC[C@@H]12` [CBX], the “effect on the growth effect induced by cGAMP” value in the data set on DRG neurons is listed as “inhibit the growth effect induced by cGAMP”.
Turning to “IFNγ: type II interferon, recombinant protein (Prospec)”, the RGC survival rates result in data set [2] (WT or Ptpn2 cKO with PBS or IFNγ) was “comparable among the four groups”. Besides, in [2] (WT, Cgas, Sting or Mavs KO mice with AAV-shRNA-Ptpn2 and IFNγ), the RGC survival result is given as “comparable among all groups”. Besides, the “phosphorylated STAT3 (p-STAT3) in RGCs” value in the data set with p-STAT3 was “also activated”. Further, the “cGAS in RGCs by immunostaining” value with cGAS (Ptpn2 cKO in addition to IFNγ, 2 days after injury) is given as “upregulated”. Also, in the data set with cGAS (setting [3]), the “cGAS in retina by western blotting” value is given as “detectable only in mouse retinas with Ptpn2 cKO plus IFNγ”. For the same molecule, the “p-STAT1 in RGCs” value in the data set with p-STAT1 (Ptpn2 KO group with IFNγ) is on record as “enhanced up to 5 dpc”. For the same molecule, the “p-STAT1 in retina lysates by western blotting” value in the data set with p-STAT1 (setting [3]) is listed as “most elevated among all groups”. Besides, the figures for the “p-STAT1 accumulation in the nuclei of RGCs” value in the data set with p-STAT1 (1 dpc) and in the data set with p-STAT1 (3 dpc) were “induced p-STAT1 accumulation” and “not at 3 dpc”, respectively. The “optic nerve regeneration by IFNγ stimulation” value in [1] (Cgas or Sting KO mice with AAV-shRNA-Ptpn2, 0.1 μg/μL IFNγ, 2 weeks after injury) was “almost completely blocked”. The “axons found at the optic chiasm, vs Pten/Socs3 mutant plus vehicle” value in data set [1] (Pten/Socs3/Ptpn2 triple KO with AAV-CNTF, IFNγ at time of injury, four weeks) was “about 3 fold”. The “axon regeneration, exogenous ligand screen” value in [1] (Ptpn2 KO mice, protein injected into the eye at time of optic nerve crush, two weeks, IFNγ 0.1 μg/μL, leptin 2, insulin 2, EGF 1, bNGF 1 μg/μL) is on record as “significantly boosted axon regeneration”. Besides, the “axon regeneration, IFNγ plus Ptpn2 KO” value in data set [1] (Ptpn2 cKO mice, intravitreal IFNγ immediately after optic nerve injury (repeat with more controls)) was “elicited robust regeneration”. The “axon regrowth, IFNγ alone” value in [1] (WT mice, intravitreal IFNγ immediately after optic nerve injury) was “induced modest regrowth”. Further, the “axon regeneration, triple KO plus IFNγ vs Pten/Socs3 mutant plus vehicle” value in data set [1] (mouse, in vivo) was “very significant increase in axon regeneration”.
For `Cc1ccc2c(=O)c3cccc(CC(=O)O)c3oc2c1C` [DMXAA, 5,6-Dimethylxanthenone-4-acetic acid], in the data set on DRG neurons, the “axon elongation / axon growth in DRG culture” value is given as “enhanced the axon elongation”.
Consider `CCc1ccc(C(=O)NCCCCC(NC(=O)C(Cc2ccc(C(F)(F)P(=O)(O)O)cc2)NC(=O)C(Cc2ccccc2)NC(=O)COC2CC(C)CCC2C(C)C)C(N)=O)cc1` (stereo not shown) [PTPN2 inhibitor, reference compound], for which the “in-vitro screening on inhibitors of mouse phosphatases (axon elongation)” value in the data set with adult DRG neurons is reported as “identified from the tyrosine phosphatase inhibitor screening”. Besides, the “axon regeneration after optic nerve crush” value in data set [1] (mouse, in vivo) is given as “elicited modest axon regeneration”.

The values above are taken from patent US20240141356A1, “Driving Axon Regeneration by Activating STAT1 Signaling and cGAS-STING Pathway” (The Hong Kong University of Science and Technology, priority 2022, published 2024).
